Numbers after ± are expanded uncertainties.
Conditions: 101.33 kPa, Liquid; for viscosity: Capillary tube (Ostwald / Ubbelohde) method; for mass density: Pycnometric method

| SMILES | viscosity (298.15 K) [mPa·s] | mass density (298.15 K) [kg/m3] | viscosity (323.15 K) [mPa·s] | mass density (323.15 K) [kg/m3] | viscosity (348.15 K) [mPa·s] | mass density (348.15 K) [kg/m3] | viscosity (373.15 K) [mPa·s] | mass density (373.15 K) [kg/m3] |
| --- | --- | --- | --- | --- | --- | --- | --- | --- |
| CCCCCCCCn1cc[n+](C)c1.O=S(=O)([O-])C(F)(F)C(F)F | 279.4 ± 29 | 1233 ± 2 | 79.8 ± 8.1 | 1215 ± 2 | 32.5 ± 3.3 | 1196 ± 2 | 15.3 ± 1.5 | 1176 ± 2 |
| CCCCn1cc[n+](C)c1.N#CN=C=[N-] [1-butyl-3-methylimidazolium dicyanamide] | 30.1 ± 3.2 | 1065 ± 3 | 13.5 ± 1.6 | 1050 ± 3 | 7.7 ± 1.1 | 1036 ± 3 | 4.9 ± 0.9 | 1026 ± 3 |
| CCCC[n+]1ccc(C)cc1.F[B-](F)(F)F [1-butyl-4-methylpyridinium tetrafluoroborate] | 205.5 ± 21 | 1185 ± 2 | 52.7 ± 5.3 | 1171 ± 2 | 21.3 ± 2.1 | 1154 ± 2 | 10.5 ± 1.1 | 1144 ± 2 |

Source: the NIST ThermoML archive (doi:10.1016/j.fluid.2011.11.030)
